{
  "source": "patent US20220133761A1",
  "about": "“NEUTROPHIL APOPTOSIS INDUCED BY NANOPARTICLES FOR TREATING INFLAMMATORY DISEASES” (WASHINGTON STATE UNIVERSITY, priority 2020, published 2022)",
  "key": {"[1]": {"tested_on": "LPS-challenged mice", "assay": "Survival study in sepsis mouse model (i.p. LPS 50 mg/kg)", "type": "in vivo", "conditions": "72 h, 0.2 mg/kg DOX i.v. 4 h after i.p. LPS 50 mg/kg", "experimental": "Adult CD-1 mice were i.p. injected with LPS (50 mg/kg) in the mouse sepsis model. 4 hours later, the LPS-challenged mice were grouped randomly (10 mice per group) and treated (i.v.) with PBS, free DOX (0.2 mg/kg), and prodrug DOX-hyd-BSA NPs (equal to 0.2 mg/kg of free DOX). The animals were monitored every 6 h in the first 12 h followed by monitoring mice every 12 h in 72 h."}, "[2]": {"tested_on": "differentiated HL-60 cells (neutrophil-like cells)", "assay": "In vitro cytotoxicity, CCK-8 assay", "type": "cell-based, human", "conditions": "24 h, different concentrations of DOX", "experimental": "Cytotoxic effects of BSA NPs on HL-60 cells were measured by CCK-8 assay. HL-60 cells were plated in 96-well plates (Costar, Corning, N.Y.) at 5,000-10,000 cells/well. After incubation for 24 h, the culture medium was removed and a complete medium with various concentrations of free DOX, BSA and DOX-conjugated BSA NPs was used to incubate cells for 24 h, respectively. 10 μL of the solution cell proliferation reagent (Promega, Madison, Wis.) per well was added. Then, the cell viability was measured by a Synergy Neo fluorescence plate reader (BioTek, Winooski, Vt.) at 490 nm."}, "[3]": {"tested_on": "activated neutrophils", "assay": "Nanoparticle uptake by blood leukocytes in LPS-induced inflammation mouse model (CLSM, flow cytometry)", "type": "in vivo", "experimental": "To investigate cell uptake specificity of BSA NPs in circulation, blood cells were isolated and studied using confocal laser scanning microscopy (CLSM) and flow cytometry. Briefly, 4 h after LPS challenge (i.p., 20 mg kg^−1), DOX-hyd-BSA NPs were intravenously injected into mice. Healthy mice were used as control. 3 h later, the whole blood was harvested in a heparinized tube from the heart. Neutrophils in blood were isolated by Pluriselect anti-mouse LY-6G S-pluribeads according to the manufacturer's protocol (Pluriselect, Spring Valley, Calif.). The cells were fixed with 2 mL of 4% paraformaldehyde for 30 min and were stained with Alexa Fluor 488-labeled anti-mouse LY-6G antibody. A slide smear of cell solution was prepared by 7620 Cytopro Cytocentrifuge (ELITech, Princeton, N.J.). A drop of Prolong Gold Antifade reagent with DAPI (Invitrogen, Eugene, Oreg.) was added on the cells, and a coverslip was applied on the slide. 4 h later, the cells were observed using a Nikon A1R^+ confocal laser scanning microscope.\nFlow cytometry to quantify neutrophil uptake of nanoparticles was also utilized. Blood leukocytes were isolated to determine the specificity of uptake of NPs in blood. In brief, 3 mL Histopaque 10771 was carefully layered on top of 3 mL Histopaque 11191 in a 15 mL centrifuge tube. […]"}, "[4]": {"assay": "Serum stability of nanoparticles in PBS with 20% FBS", "type": "physicochemical", "conditions": "pH 7.4, incubation for 4 days", "experimental": "Particle size and polydispersity indexes (PDI) were measured using Malvern Zetasizer Nano90 (Westborough, Mass.). The samples were incubated in PBS at pH 7.4 for 2 h, and the measurements were conducted in a 1.0 mL quartz cuvette using a diode laser of 633 nm at 25° C. and a scattering angle was fixed at 90°. To evaluate their serum stability, nanoparticles were dispersed in 20% FBS PBS solution (pH 7.4) at a final concentration of 1 mg/mL. Nanoparticle sizes were measured at the predefined time points. Transmission electron microscopy (TEM) of nanoparticles was also performed using a FEI Technai G2 20 Twin TEM (Hillsboro, Oreg.)."}, "[5]": {"tested_on": "cerebral I/R mouse model", "assay": "Middle cerebral artery occlusion (MCAO) cerebral I/R mouse model", "type": "in vivo", "experimental": "CD1 mice were used. Mice were anesthetized using 100 mg/kg of ketamine and 5 mg/kg of xylazine. They were positioned in the supine position on a heating pad. A carotid artery (CA) was exposed via the midline neck incision. An external carotid artery (ECA) was separated and occulated with two knots. Next, the internal carotid artery (ICA) was isolated, and the CA and ICA were clipped. A small hole was cut in the ECA above the second knot. A 6-0 medium MCAO suture was then introduced into ICA. Mice were kept for 60 min after occlusion in a heated cage, and the suture was withdrawn for reperfusion. Finally, the skin was closed and the mice were returned to the individual cage.\nThe damaged brain tissues were collected 24 h after MCAO and homogenized in PBS with 5% hexadecyltrimethylammonium bromide (HTAB). The homogenate was sonicated, and centrifuged at 13,000 rpm for 10 min. Next, 10 μL supernatant was loaded into each well of a 96-well plate. A solution of o-Dianisidine dihydrochloride with 0.0005% hydrogen peroxide in potassium phosphate buffer was added to the samples. Absorbance was measured at 450 nm. MPO activity is expressed as change in absorbance per minute per gram of tissue.\nThe damaged brain tissues of mice were collected 24 h after MCAO surgery and homogenized in PBS buffer. The level of cytokines (TNF-α, IL-1β, IL-6) was quantified using commercial ELISA assay as aforementioned.\nVideos were taken 24 h after MCAO surgery and neurological deficit scores were given by two people. The scores are divided into five grades for neurological scores of mice after cerebral ischemia."}, "[6]": {"assay": "pH-triggered DOX release, UV-Vis of supernatants after 2 h incubation", "type": "physicochemical", "experimental": "To confirm the pH-triggered drug release property, BSA NPs, DOX-ab-BSA NPs and DOX-hyd-BSA NPs were incubated in PBS at pH 7.4, 6.5 and 5.0 for 2 h, respectively. After centrifugation, the supernatants were collected to determine DOX concentrations using a UV-Vis spectrometer."}, "[7]": {"tested_on": "heart, liver, spleen, lung and kidney", "assay": "Toxicity by histological analysis (H&E staining of major organs)", "conditions": "0.2 mg/kg DOX", "experimental": "After different treatments (healthy, PBS, 4 mg/kg of free DOX, 0.2 mg/kg of free DOX, DOX-hyd-BSA NPs and DOX-ab-BSA NPs, equal to 0.2 mg/kg of DOX for NPs), mice were sacrificed by carbon dioxide asphyxiation. […] The samples were imaged by a microscope (ZEISS, Observer. Z1, USA)."}, "[8]": {"tested_on": "LPS-challenged mice", "assay": "Second LPS hit (i.t.) in mice that survived sepsis after NP treatment", "description": "The mice were challenged with LPS (i.p., 50 mg/kg) or PBS (control). 4 h later, the LPS-challenged mice were i.v. treated with DOX-hyd-BSA NPs at 0.2 mg/kg of DOX. The control mice were not treated with LPS and NPs. 72 h later, all survival and control (healthy) mice were challenged with LPS (i.t., 10 mg/kg).\nThe combinatory experiments were designed in which a mouse was i.p. challenged with LPS to cause sepsis, and then a mouse was treated with DOX-loaded NPs 4 h after the LPS challenge. At 72 h after the LPS challenge, the survival mouse was i.t. administered to examine whether neutrophils can transmigrate and respond to the second hit of LPS (see FIG. 10M of experimental protocol diagram)."}, "[9]": {"conditions": "0.2 mg/kg DOX i.v. 1 h after reperfusion, 22 h post-injection, vs free DOX and PBS"}},
  "data": [
    {"substance": "DOX-hyd-BSA NPs", "values": [
      {"measurement": "mouse survival", "setting": "[1]", "result": 70, "unit": "%"},
      {"measurement": "cytotoxicity (cell viability)", "setting": "[2]", "result": "cytotoxicity was similar for both free DOX and DOX-hyd-BSA NPs"},
      {"measurement": "neutrophil uptake of NPs", "setting": "[3]; 4 h after i.p. LPS 20 mg/kg, blood 3 h after i.v. NPs", "result": "neutrophil uptake was observed"},
      {"measurement": "uptake by T cells, monocytes and natural killer (NK) cells in blood", "setting": "[3]; LPS-challenged mice, flow cytometry", "result": "did not take up BSA NPs"},
      {"measurement": "serum stability (aggregation, diameter change)", "setting": "[4]", "result": "no aggregation (diameter change) was observed"},
      {"measurement": "cytokines in the brain (TNF-α, IL-1β, IL-6)", "setting": "[5]; [9]", "result": "significantly reduced"},
      {"measurement": "neutrophil numbers in the brain (MPO activity)", "setting": "[5]; [9]", "result": "significantly reduced"},
      {"measurement": "neurological deficits (behavior scores)", "setting": "[5]; 0.2 mg/kg of DOX, 24 h after MCAO", "result": "enhanced mouse neurological recovery and improved mouse movements"},
      {"measurement": "DOX absorption at 480 nm in supernatant", "setting": "[6]; pH 5.0 and 6.5, 2 h incubation in PBS", "result": "Absorption of DOX molecules at 480 nm was observed"},
      {"measurement": "DOX in supernatant", "setting": "[6]; pH 7.4, 2 h incubation in PBS", "result": "did not observe DOX in the supernatant"},
      {"measurement": "tissue or cellular damage in H&E sections of heart, liver, spleen, lung, kidney", "setting": "[7]", "result": "did not show any noticeable signs of tissue or cellular damage"},
      {"measurement": "body weight of mice that survived sepsis", "setting": "[8]; 0.2 mg (DOX)/kg dose", "result": "returned to their initial weight"},
      {"measurement": "response of neutrophils to second LPS challenge (BALF neutrophils, cytokines)", "setting": "[8]; i.t. LPS 10 mg/kg at 72 h, BALF at 84 h, vs healthy mice", "result": "can immediately respond to the challenge of LPS like what the healthy mice did"}
    ]}
  ]
}
